Reference: the supplement of paper PMC10307832

How the values were obtained:
Experiment in all cases: relative viability (nuclei count vs DMSO), 5 days (fraction); higher = more cells survive
[1] = compound: C1=CC=C2C(=C1)N=C(S2)C(C#N)C3=NC(=NC=C3)NCCC4=CN=CC=C4 + C[C@]1(O)C[C@@H](c2nc(-c3ccc4ccc(-c5ccccc5)nc4c3)c3c(N)nccn32)C1 [Linsitinib] (partner 1 µM)
In short: (§1)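 Each reported value is a median over duplicate plates. It expresses relative viability: treated-well nuclei count divided by vehicle-well nuclei count. Lung cancer cell lines in 1536-well plates were dosed by pin tool a day after seeding, alone with one drug or with a fixed anchor-drug dose plus five library-drug doses (not always all listed) in √10 steps, and nuclei were counted after 5 days.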

NVP-TAE684 + Tozasertib = compound: COc1cc(N2CCC(N3CCN(C)CC3)CC2)ccc1Nc1ncc(Cl)c(Nc2ccccc2S(=O)(=O)C(C)C)n1 [NVP-TAE684] + Cc1cc(Nc2cc(N3CCN(C)CC3)nc(Sc3ccc(NC(=O)C4CC4)cc3)n2)n[nH]1 [Tozasertib] (partner 0.1 µM)
In short: as §1

Vandetanib + Navitoclax = compound: COc1cc2/c(=N/c3ccc(Br)cc3F)nc[nH]c2cc1OCC1CCN(C)CC1 [Vandetanib] + CC1(C)CCC(c2ccc(Cl)cc2)=C(CN2CCN(c3ccc(C(=O)NS(=O)(=O)c4ccc(N[C@H](CCN5CCOCC5)CSc5ccccc5)c(S(=O)(=O)C(F)(F)F)c4)cc3)CC2)C1 [Navitoclax] (partner 0.5 µM)
In short: as §1

Vandetanib + Linsitinib = compound: COc1cc2/c(=N/c3ccc(Br)cc3F)nc[nH]c2cc1OCC1CCN(C)CC1 [Vandetanib] + C[C@]1(O)C[C@@H](c2nc(-c3ccc4ccc(-c5ccccc5)nc4c3)c3c(N)nccn32)C1 [Linsitinib] (partner 1 µM)
In short: as §1

Cell Line	relative viability ([1]; first compound 0.005 µM)	relative viability ([1]; first compound 0.01581 µM)	relative viability ([1]; first compound 0.05 µM)	relative viability ([1]; first compound 0.1581 µM)	relative viability ([1]; first compound 0.5 µM)	relative viability (NVP-TAE684 + Tozasertib; first compound 0.2 µM)	relative viability (NVP-TAE684 + Tozasertib; first compound 0.6325 µM)	relative viability (NVP-TAE684 + Tozasertib; first compound 2 µM)	relative viability (Vandetanib + Navitoclax; first compound 0.02 µM)	relative viability (Vandetanib + Navitoclax; first compound 0.06325 µM)	relative viability (Vandetanib + Navitoclax; first compound 0.2 µM)	relative viability (Vandetanib + Navitoclax; first compound 0.6325 µM)	relative viability (Vandetanib + Navitoclax; first compound 2 µM)	relative viability (Vandetanib + Linsitinib; first compound 0.02 µM)	relative viability (Vandetanib + Linsitinib; first compound 0.06325 µM)	relative viability (Vandetanib + Linsitinib; first compound 0.2 µM)	relative viability (Vandetanib + Linsitinib; first compound 0.6325 µM)	relative viability (Vandetanib + Linsitinib; first compound 2 µM)
HCC-15	0.842	0.911	0.926	0.888	0.882	0.368	0.389	0.176	0.685	0.702	0.682	0.756	0.649	0.816	0.804	0.91	0.864	0.849
NCI-H2347	0.899	0.854	0.954	0.953	0.966	0.59	0.487	0.359	0.878	0.453	0.834	0.945	0.708	0.976	0.64	0.929	0.995	0.982
COR-L 105	0.956	1.04	1.11	1.11	0.992	0.364	0.315	0.23	0.833	0.888	0.826	0.804	0.353	0.891	0.877	0.976	0.54	0.444
NCI-H838	0.713	1.08	0.957	1.03	0.874	0.311	0.233	0.226	1.13	1.13	1.15	1.12	1.07	1.02	1.07	1.02	1.01	1.01
NCI-H2009	1.15	1.22	1.22	1.25	1.07	0.77	0.704	0.376	1.12	1.15	1.24	1.19	1.11	1.17	1.16	1.3	1.22	1.19
SK-MES-1	1.17	1.07	1.09	1.12	0.97	0.958	0.892	0.48	1.26	1.04	1.24	1.27	1.2	1.09	0.925	1.06	0.971	0.989
H3255	0.89	1.01	0.908	1.05	1.04	0.639	0.717	0.409	0.5	0.421	0.332	0.161	0.108	1.1	0.9	0.949	0.654	0.181
HCC-78	0.492	0.423	0.33	0.582	0.549	0.361	0.429	0.217	0.732	0.649	0.828	0.887	0.573	0.414	0.438	0.567	0.579	0.337
EMC-BAC-2	0.568	0.877	0.785	0.925	0.728	0.284	0.266	0.233	1.11	1.11	0.76	1.12	1.06	0.792	0.772	0.612	0.77	0.673
NCI-H2228	0.792	0.762	0.629	0.734	0.634	0.196	0.129	0.136	0.917	0.482		0.938	0.695	0.589	0.54		0.707	0.585
HCC-827	0.988	0.987	0.961	1.03	0.931	0.462	0.41	0.715	1.04	0.975	0.993	0.464	0.153	0.922	0.941	0.929	0.367	0.198
LXF-289	0.853	1.01	1.05	1.04	0.92	0.263	0.168	0.0842	0.94	0.921	1	0.937	0.934	0.949	0.942	0.957	0.971	0.967
HOP-62	1.13	1.19	0.919	1.21	0.932	0.397	0.386	0.294	0.975	1.07	0.999	1.18	1.01	1.04	0.965	0.926	1.05	0.977
LOU-NH91	0.919	0.931	0.834	0.973	0.935	0.622	0.576	0.475	0.709	0.561	0.553	0.535	0.445	0.954	0.733	0.679	0.685	0.629
NCI-H1915	1.08	1.09	1.09	1.18	1.13	0.487	0.415	0.492	0.769	0.781	0.772	0.794	0.772	1.06	1.09	1.08	1.1	1.13
NCI-H1395	1.07		0.978	1.07	1.29	0.819	0.699	0.626	1.11	1.06	1.04	1.25	1.29	1.1	1.09	0.934	0.968	1.18
